Reference: ChEMBL document CHEMBL1201862, “PubChem BioAssay data set” (2004)
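Cells were grown in 96-well plates and exposed to each compound for 48 hours at five concentrations; endpoints were interpolated linearly between bracketing concentrations, or set to the highest concentration if not reached. GI50: concentration for 50% inhibition of growth.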 Activity calls are given as the source filed them. Rule as the data show it: active = GI50 up to about 1.1 µM and inactive = higher.

How the values were obtained:
Experiment in all cases: inhibition of tumour cell growth, NCI panel, 48 h
SW-620 = tested on: SW-620
Malme-3M = tested on: Malme-3M
SF-295 = tested on: SF-295
HCT-116 = tested on: HCT-116
LOX IMVI = tested on: LOX IMVI
OVCAR-5 = tested on: OVCAR-5
UACC-62 = tested on: UACC-62
NCI-H23 = tested on: NCI-H23
HOP-92 = tested on: HOP-92
SF-539 = tested on: SF-539
A549 = tested on: A549
SN12C = tested on: SN12C
COLO 205 = tested on: COLO 205
HCC 2998 = tested on: HCC 2998
MOLT-4 = tested on: MOLT-4
DMS-273 = tested on: DMS-273
A498 = tested on: A498
HL-60 = tested on: HL-60
SK-MEL-28 = tested on: SK-MEL-28
HOP-62 = tested on: HOP-62
M14 = tested on: M14
OVCAR-8 = tested on: OVCAR-8
SK-MEL-5 = tested on: SK-MEL-5
RPMI-8226 = tested on: RPMI-8226
DLD-1 = tested on: DLD-1
LXFL 529 = tested on: LXFL 529
SNB-19 = tested on: SNB-19
OVCAR-4 = tested on: OVCAR-4
SR = tested on: SR
HOP-18 = tested on: HOP-18
IGROV-1 = tested on: IGROV-1
XF498 = tested on: XF498
SNB-78 = tested on: SNB-78
K562 = tested on: K562
NCI-H226 = tested on: NCI-H226
NCI-H460 = tested on: NCI-H460
CAKI-1 = tested on: CAKI-1
M19-MEL = tested on: M19-MEL
UACC-257 = tested on: UACC-257
786-0 = tested on: 786-0
KM12 = tested on: KM12
HCT-15 = tested on: HCT-15
HT-29 = tested on: HT-29
TK-10 = tested on: TK-10
CCRF-CEM = tested on: CCRF-CEM
U-251 = tested on: U-251
KM-20L2 = tested on: KM-20L2
RXF 393 = tested on: RXF 393
NCI-H522 = tested on: NCI-H522
SF-268 = tested on: SF-268
OVCAR-3 = tested on: OVCAR-3

COC1OC(C)C(OC(=O)C(C)(C)C)C(C)(O)C1O (stereo unspecified)
GI50 (SW-620): > 100 µM (inactive) | GI50 (Malme-3M): > 100 µM (inactive) | GI50 (SF-295): > 100 µM (inactive) | GI50 (HCT-116): > 100 µM (inactive) | GI50 (LOX IMVI): > 100 µM (inactive) | GI50 (OVCAR-5): > 100 µM (inactive) | GI50 (UACC-62): > 100 µM (inactive) | GI50 (NCI-H23): > 100 µM (inactive) | GI50 (HOP-92): > 100 µM (inactive) | GI50 (SF-539): > 100 µM (inactive) | GI50 (A549): > 100 µM (inactive) | GI50 (SN12C): > 100 µM (inactive) | GI50 (COLO 205): > 100 µM (inactive) | GI50 (HCC 2998): > 100 µM (inactive) | GI50 (MOLT-4): > 100 µM (inactive) | GI50 (DMS-273): > 100 µM (inactive) | GI50 (A498): > 100 µM (inactive) | GI50 (HL-60): > 100 µM (inactive) | GI50 (SK-MEL-28): > 100 µM (inactive) | GI50 (HOP-62): > 100 µM (inactive) | GI50 (M14): > 100 µM (inactive) | GI50 (OVCAR-8): > 100 µM (inactive) | GI50 (SK-MEL-5): > 100 µM (inactive) | GI50 (RPMI-8226): > 100 µM (inactive) | GI50 (DLD-1): > 100 µM (inactive) | GI50 (LXFL 529): > 100 µM (inactive) | GI50 (SNB-19): > 100 µM (inactive) | GI50 (OVCAR-4): > 100 µM (inactive) | GI50 (SR): > 100 µM (inactive) | GI50 (HOP-18): > 100 µM (inactive) | GI50 (IGROV-1): > 100 µM (inactive) | GI50 (XF498): > 100 µM (inactive) | GI50 (SNB-78): 81.5 µM (inactive) | GI50 (K562): > 100 µM (inactive) | GI50 (NCI-H226): > 10 µM (inactive) | GI50 (NCI-H460): > 100 µM (inactive) | GI50 (CAKI-1): > 100 µM (inactive) | GI50 (M19-MEL): > 100 µM (inactive) | GI50 (UACC-257): > 100 µM (inactive) | GI50 (786-0): > 100 µM (inactive) | GI50 (KM12): > 100 µM (inactive) | GI50 (HCT-15): > 100 µM | GI50 (HT-29): > 100 µM (inactive) | GI50 (TK-10): > 100 µM (inactive) | GI50 (CCRF-CEM): > 100 µM (inactive) | GI50 (U-251): > 100 µM (inactive) | GI50 (KM-20L2): > 100 µM (inactive) | GI50 (RXF 393): > 100 µM (inactive) | GI50 (NCI-H522): > 100 µM (inactive) | GI50 (SF-268): > 100 µM (inactive) | GI50 (OVCAR-3): > 100 µM (inactive)
